Results: ChEMBL document CHEMBL3046402, “Synthesis of substituted benzo[d]thiazol-2-ylcarbamates as potential anticonvulsants” (2013)
Activity calls are given as the source filed them. No cut-off for these calls is given here.

Experiments:
Mus musculus [1] = test: Anticonvulsant activity in Swiss albino Mus musculus (mouse) assessed as protection against maximal electric shock-induced death at 35 mg/kg administered 30 min prior to maximal electric shock-challenge; format: functional, organism-based; set-up: dose 35 mg/kg
Mus musculus [2] = test: Anticonvulsant activity in Swiss albino Mus musculus (mouse) assessed protection against PTZ-induced clonic convulsion at 35 mg/kg administered 60 min prior to PTZ-challenge measured up to 30 min relative to control; format: functional
Mus musculus [3] = test: Anticonvulsant activity in Swiss albino Mus musculus (mouse) assessed as latency time of maximal electric shock-induced clonus onset at 35 mg/kg administered 30 min prior to maximal electric shock-challenge (reference value: 3.16 +/- 0.0833 min); format: functional
Mus musculus [4] = test: Anticonvulsant activity in Swiss albino Mus musculus (mouse) assessed as time duration of maximal electric shock-induced tonic extension at 35 mg/kg administered 30 min prior to maximal electric shock-challenge (reference value: 20.66 +/- 0.8433 secs); format: functional
Mus musculus [5] = test: Anticonvulsant activity against maximal electric shock-induced seizures in Swiss albino Mus musculus (mouse) assessed as time duration of tonic flexions at 35 mg/kg administered 30 min prior to maximal electric shock-challenge (reference value: 0 secs); format: functional
Mus musculus [6] = test: Anticonvulsant activity in Swiss albino Mus musculus (mouse) assessed as time of onset of PTZ-induced clonic convulsion at 35 mg/kg administered 60 min prior to PTZ-challenge (reference value: 59.166 +/- 0.04216 Secs); format: functional
Mus musculus [7] = test: Anticonvulsant activity in Swiss albino Mus musculus (mouse) assessed as protection against maximal electric shock-induced death at 20 mg/kg administered 30 min prior to maximal electric shock-challenge; format: functional, organism-based; set-up: dose 20 mg/kg
Mus musculus [8] = test: Anticonvulsant activity in Swiss albino Mus musculus (mouse) assessed as time duration of maximal electric shock-induced tonic extension at 20 mg/kg administered 30 min prior to maximal electric shock-challenge (reference value: 20.66 +/- 0.8433 secs); format: functional
Mus musculus [9] = test: Anticonvulsant activity against maximal electric shock-induced seizures in Swiss albino Mus musculus (mouse) assessed as time duration of tonic flexions at 20 mg/kg administered 30 min prior to maximal electric shock-challenge (reference value: 0 secs); format: functional
Mus musculus [10] = test: Anticonvulsant activity in Swiss albino Mus musculus (mouse) assessed protection against PTZ-induced clonic convulsion at 20 mg/kg administered 60 min prior to PTZ-challenge measured up to 30 min relative to control; format: functional
Mus musculus [11] = test: Anticonvulsant activity in Swiss albino Mus musculus (mouse) assessed as latency time of maximal electric shock-induced clonus onset at 20 mg/kg administered 30 min prior to maximal electric shock-challenge (reference value: 3.16 +/- 0.0833 min); format: functional

Row | Compound | Activity (Mus musculus [1]) | Activity (Mus musculus [2]) [%] | Time (Mus musculus [3]) [min] | Time (Mus musculus [4]) [s] | Time (Mus musculus [5]) [s] | Time (Mus musculus [6]) [s] | Activity (Mus musculus [7]) | Time (Mus musculus [8]) [s] | Time (Mus musculus [9]) [s] | Activity (Mus musculus [10]) [%] | Time (Mus musculus [11]) [min]
1 | CCOC(=O)Nc1nc2ccc(C)cc2s1 | Active | 100 | 12.55 | 0 | 6.24 | – | – | – | – | – | –
2 | CCOC(=O)Nc1nc2c(C)cccc2s1 | Active | 83.33 | 10.36 | 0 | 7.33 | 85.166 | – | – | – | – | –
3 | CCOC(=O)Nc1nc2ccc(CC)cc2s1 | Active | 83.33 | 10.415 | 0 | 8.12 | 83 | – | – | – | – | –
4 | O=C(Nc1nc2ccccc2s1)Oc1ccccc1 | Active | 100 | 11.47 | 0 | 9.54 | – | – | – | – | – | –
5 | O=C(Nc1nc2ccc(Cl)cc2s1)Oc1ccccc1 | Active | 66.66 | 11.2 | 0 | 8.34 | 70.83 | – | – | – | – | –
6 | Cc1ccc2nc(NC(=O)Oc3ccccc3)sc2c1 | Active | 100 | 13.28 | 0 | 6.74 | – | – | – | – | – | –
7 | CCOC(=O)Nc1nc2ccc(Cl)cc2s1 | Active | 66.66 | 5.4 | 0 | 9.27 | 71.83 | – | – | – | – | –
8 | COc1ccc2nc(NC(=O)Oc3ccccc3)sc2c1 | Active | 66.66 | 4.675 | 0 | 11.08 | 80.5 | – | – | – | – | –
9 | O=C(Nc1nc2ccc([N+](=O)[O-])cc2s1)Oc1ccccc1 | Active | 100 | 10.34 | 0 | 6.32 | – | – | – | – | – | –
10 | CCOC(=O)Nc1nc2ccc(OC)cc2s1 | Active | 100 | 9.56 | 0 | 6.4 | – | – | – | – | – | –
11 | CCOC(=O)Nc1nc2ccc([N+](=O)[O-])cc2s1 | Active | 83.33 | 8.37 | 0 | 7.44 | 80.5 | – | – | – | – | –
12 | CCOC(=O)Nc1nc2ccccc2s1 | Active | 83.33 | 11.18 | 0 | 7.29 | 86.66 | – | – | – | – | –
13 | CCc1ccc2nc(NC(=O)Oc3ccccc3)sc2c1 | Active | 83.33 | 7.59 | 0 | 5.2916 | 86 | – | – | – | – | –
14 | O=C1NC(=O)C(c2ccccc2)(c2ccccc2)N1 [PHENYTOIN] | – | – | – | – | – | – | Active | 0 | 5.34 | 100 | 13.39
15 | Cc1cccc2sc(NC(=O)Oc3ccccc3)nc12 | Active | 83.33 | 9.58 | 0 | 5.48 | 75.166 | – | – | – | – | –
